Laboratory results taken from BindingDB's records for doi:10.1016/j.bmc.2015.03.045 (Chungnam National University, 2015).

Experiment: Inhibition of mouse IL5-mediated mouse Y16 cell proliferation after 48 hrs by WST1 assay

SMILES | IC50
CC(=O)OCc1c(C2CCCCC2)oc2ccc(NS(=O)(=O)c3ccccc3)cc2c1=O | > 30 µM
CC(=O)OCc1c(-c2ccccc2)oc2ccc(NC(=O)c3cnccn3)cc2c1=O | > 30 µM
O=C(Nc1ccc2oc(C3CCCCC3)c(CO)c(=O)c2c1)C1CCCCC1 | > 30 µM
O=C(Nc1ccc2oc(-c3ccccc3)c(CO)c(=O)c2c1)c1cnccn1 | > 30 µM
CC(=O)OCc1c(-c2ccc(F)cc2)oc2ccc(NC(=O)c3ccccc3)cc2c1=O | > 30 µM
O=C(Nc1ccc2oc(-c3ccccc3)c(CO)c(=O)c2c1)C1CCCCC1 | > 30 µM
CC(=O)OCc1c(C2CCCCC2)oc2ccc(NC(=O)C3CCCCC3)cc2c1=O | 20 µM
CC(=O)OCc1c(C2CCCCC2)oc2ccc(NC(=O)Nc3ccccc3)cc2c1=O | > 30 µM
CC(C)(C)C(=O)OCc1c(C2CCCCC2)oc2ccc(NC(=O)c3ccccc3)cc2c1=O | > 30 µM
O=C(Nc1ccc2oc(-c3ccc(F)cc3)c(CO)c(=O)c2c1)c1ccccc1 | > 30 µM
O=C(Nc1ccc2oc(-c3ccccc3)c(CO)c(=O)c2c1)c1ccccc1 | 22 µM

The next compounds have a lower IC50 than those just listed; values first:

IC50 | SMILES
19.2 µM | CC(=O)OCc1c(C2CCCCC2)oc2ccc(NCc3ccccc3)cc2c1=O
19 µM | CC(C)C(=O)OCc1c(C2CCCCC2)oc2ccc(NC(=O)c3ccccc3)cc2c1=O
18 µM | CC(=O)OCc1c(-c2ccccc2)oc2ccc(NC(=O)C3CCCCC3)cc2c1=O
16 µM | CC(=O)OCc1c(-c2ccccc2)oc2ccc(NC(=O)c3ccccc3)cc2c1=O
10 µM | O=C(Nc1ccc2oc(C3CCCCC3)c(CO)c(=O)c2c1)c1ccccc1
6.1 µM | CC(=O)OCc1c(C2CCCCC2)oc2ccc(NC(=O)c3ccccc3)cc2c1=O
